Experimental data taken from patent publication US11986471B2, “Compounds and methods of use” (Tango Therapeutics, Inc., priority 2018, dated 2024).

Assays:
PRMT5 [1] = molecular target: T1, PRMT5 (Homo sapiens, UniProt O14744); assay: PRMT5 IC50 assay with no cofactor; assay type: biochemical
T1 construct: purchased Viva (custom protein)
How it was run: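 Results given as IC50 (μM), from which Ki follows by dividing by 1.5 in the SAM condition or by 13.5 in the MTA condition. The ratio of SAM Ki to MTA Ki indicates MTA-cooperative preference.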

HAP1 MTAP-deleted = assay: SDMA in-cell western assay, HAP1 MTAP-deleted cell line; assay type: cell-based; settings: for IC50: Homo sapiens, HAP1 MTAP-deleted cell line; for MTAP Intact/Deleted Ratio: IC50 ratio HAP1 MTAP-intact / HAP1 MTAP-deleted
How it was run: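 Readout is cellular SDMA signal by in-cell western, with IC50 values derived from it. The cells are MTAP-null HAP1, matched to an isogenic MTAP-intact HAP1 line.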

PRMT5 [2] = molecular target: T1, PRMT5; assay: PRMT5 IC50 assay in the presence of SAM as cofactor; assay type: biochemical
How it was run: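 IC50 against PRMT5 determined with SAM as cofactor, with no cofactor, and with MTA as cofactor. Ki derived as IC50/1.5 for the SAM assay and IC50/13.5 for the MTA assay; SAM Ki to MTA Ki ratio also reported.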

PRMT5 [3] = molecular target: T1, PRMT5; assay: PRMT5 IC50 assay in the presence of MTA as cofactor; assay type: biochemical; settings: for IC50: PRMT5, MTA as cofactor
How it was run: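 For the SAM-containing format, dividing IC50 by 1.5 yields Ki; for the MTA-containing format the divisor is 13.5. A third format without cofactor gives IC50 alone.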

HAP1 MTAP-intact = assay: SDMA in-cell western assay, HAP1 MTAP-intact cell line; assay type: cell-based; settings: Homo sapiens
How it was run: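 IC50 values come from SDMA in-cell western staining of HAP1 cells. The MTAP-intact line carries endogenous MTAP, while its MTAP-deleted counterpart lacks MTAP entirely. A selectivity ratio of at least 3 fold marks a compound as MTAP-selective.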

[4] = ratio between the Ki in the presence of SAM and the Ki in the presence of MTA
[5] = ratio between Ki in the presence of SAM and Ki in the presence of MTA

T1 sequence (O14744 whole entry): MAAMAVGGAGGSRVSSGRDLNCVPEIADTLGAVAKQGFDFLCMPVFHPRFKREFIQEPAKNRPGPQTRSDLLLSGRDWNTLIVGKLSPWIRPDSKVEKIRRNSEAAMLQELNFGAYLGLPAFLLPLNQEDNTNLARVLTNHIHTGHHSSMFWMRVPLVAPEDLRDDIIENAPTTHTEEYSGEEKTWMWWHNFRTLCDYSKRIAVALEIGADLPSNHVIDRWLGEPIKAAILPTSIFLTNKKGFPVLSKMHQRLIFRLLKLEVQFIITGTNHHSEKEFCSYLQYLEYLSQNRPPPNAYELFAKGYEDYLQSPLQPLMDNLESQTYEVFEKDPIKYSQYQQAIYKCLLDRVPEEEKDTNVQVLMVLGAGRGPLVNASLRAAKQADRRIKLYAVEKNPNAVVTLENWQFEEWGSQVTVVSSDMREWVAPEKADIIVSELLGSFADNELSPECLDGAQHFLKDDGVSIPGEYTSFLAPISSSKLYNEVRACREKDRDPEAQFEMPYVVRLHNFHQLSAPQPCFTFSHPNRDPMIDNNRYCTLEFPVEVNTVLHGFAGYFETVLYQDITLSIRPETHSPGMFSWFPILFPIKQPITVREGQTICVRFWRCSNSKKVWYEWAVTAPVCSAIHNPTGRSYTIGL
T1 sequence (Q9BQA1 whole entry partner): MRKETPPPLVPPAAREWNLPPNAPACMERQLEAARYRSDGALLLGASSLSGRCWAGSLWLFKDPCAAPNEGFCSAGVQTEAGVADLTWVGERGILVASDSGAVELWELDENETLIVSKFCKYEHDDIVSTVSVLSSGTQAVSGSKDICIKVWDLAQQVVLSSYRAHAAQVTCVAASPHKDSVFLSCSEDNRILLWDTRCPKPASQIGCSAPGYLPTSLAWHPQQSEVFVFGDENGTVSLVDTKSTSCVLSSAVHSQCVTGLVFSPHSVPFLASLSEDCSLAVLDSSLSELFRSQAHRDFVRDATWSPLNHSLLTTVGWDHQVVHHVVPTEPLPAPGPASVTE

Row | IC50 (PRMT5 [1]) [µM] | IC50 (HAP1 MTAP-deleted) [µM] | IC50 (PRMT5 [2]) [µM] | IC50 (PRMT5 [3]) [µM] | IC50 (HAP1 MTAP-intact) [µM] | IC50 (PRMT5 [1]; read-out: No Co-factor IC50) [µM] | Compound | MTAP Intact/Deleted Ratio (HAP1 MTAP-deleted) | SAM/MTA Ratio (PRMT5 [3]; [4]) | SAM/MTA Ratio (PRMT5 [3]; [5])
1 | ≥ 5 | ≥ 10 | 0.5 to 5 | 0.05 to 0.5 | ≥ 10 | – | CC(=O)N1CCN(c2nc(NC3COC3)cc(C(=O)NC[C@H](O)CN3CCc4c(ccc(OCc5ocnc5C)c4C)C3)n2)CC1 [Compound 499, 2-(4-acetylpiperazin-1-yl)-N-[(2S)-2-hydroxy-3-{5-methyl-6-[(4-methyl-1,3-oxazol-5-yl)methoxy]-1,2,3,4-tetrahydroisoquinolin-2-yl}propyl]-6-[(oxetan-3-yl)amino]pyrimidine-4-carboxamide] | C* (an IC50 ratio of less than 3 fold between the IC50 in the HAP1 MTAP-intact cell line and the HAP1 MTAP-deleted cell line) | A (a Ki ratio greater than or equal to 10 fold between the Ki in the presence of SAM and the Ki in the presence of MTA) | –
2 | ≥ 5 | ≥ 10 | 0.05 to 0.5 | 0.05 to 0.5 | ≥ 10 | – | Cc1c(OCc2cnco2)ccc2c1CCN(C[C@@H](O)CNC(=O)c1ccnc(NC3CN(C(=O)CC(C)C)C3)c1)C2 [Compound 522, (S)—N-(2-hydroxy-3-(5-methyl-6-(oxazol-5-ylmethoxy)-3N-dihydroisoquinolin-2(1H)-yl)propyl)-2-((1-(3-methylbutanoyl)azetidin-3-yl)amino)isonicotinamide] | C* (an IC50 ratio of less than 3 fold between the IC50 in the HAP1 MTAP-intact cell line and the HAP1 MTAP-deleted cell line) | A (a Ki ratio greater than or equal to 10 fold between the Ki in the presence of SAM and the Ki in the presence of MTA) | –
3 | – | 1 to 10 | 0.05 to 0.5 | 0.05 to 0.5 | ≥ 10 | ≥ 5 | CC(=O)N1CCC(Nc2cc(C(=O)NC[C@H](O)CN3CCc4c(ccc(OCc5ocnc5C)c4Cl)C3)ncn2)CC1 [Compound 256, (S)-6-((1-acetylpiperidin-4-yl)amino)-N-(3-(5-chloro-6-((4-methyloxazol-5-yl)methoxy)-3N-dihydroisoquinolin-2(1H)-yl)-2-hydroxypropyl)pyrimidine-4-carboxamide] | C* (an IC50 ratio of less than 3 fold between the IC50 in the HAP1 MTAP-intact cell line and the HAP1 MTAP-deleted cell line) | – | A (a Ki ratio greater than or equal to 10 fold between the Ki in the presence of SAM and the Ki in the presence of MTA)
4 | – | ≥ 10 | 0.5 to 5 | 0.5 to 5 | ≥ 10 | ≥ 5 | O=C(NC[C@H](O)CN1CCc2c(ccc(OCc3cnco3)c2I)C1)c1ccnc(NC2CCC2)c1 [Compound 258, 2-(cyclobutylamino)-N-[(2S)-2-hydroxy-3-[5-iodo-6-(oxazol-5-ylmethoxy)-3,4-dihydro-1H-isoquinolin-2-yl]propyl]pyridine-4-carboxamide] | C* (an IC50 ratio of less than 3 fold between the IC50 in the HAP1 MTAP-intact cell line and the HAP1 MTAP-deleted cell line) | – | A (a Ki ratio greater than or equal to 10 fold between the Ki in the presence of SAM and the Ki in the presence of MTA)
5 | ≥ 5 | 1 to 10 | 0.5 to 5 | 0.05 to 0.5 | 1 to 10 | – | CCN(C)c1cc(C(=O)NC[C@H](O)CN2CCc3cc(OCc4cnco4)ccc3C2)cc(NC2CCC2)n1 [Compound 438, (S)-2-(cyclobutylamino)-6-(ethyl(methyl)amino)-N-(2-hydroxy-3-(6-(oxazol-5-ylmethoxy)-3,4-dihydroisoquinolin-2(1H)-yl)propyl)isonicotinamide] | C* (an IC50 ratio of less than 3 fold between the IC50 in the HAP1 MTAP-intact cell line and the HAP1 MTAP-deleted cell line) | A (a Ki ratio greater than or equal to 10 fold between the Ki in the presence of SAM and the Ki in the presence of MTA) | –
6 | 0.5 to 5 | 1 to 10 | 0.05 to 0.5 | 0.05 to 0.5 | ≥ 10 | – | Cc1c(OCc2cnco2)ccc2c1CCN(C[C@@H](O)CNC(=O)c1ccnc(NC3CC4(CCC4)C3)c1)C2 [Compound 473, (S)—N-(2-hydroxy-3-(5-methyl-6-(oxazol-5-ylmethoxy)-3,4-dihydroisoquinolin-2(1H)-yl)propyl)-2-(spiro[3.3]heptan-2-ylamino)isonicotinamide] | C* (an IC50 ratio of less than 3 fold between the IC50 in the HAP1 MTAP-intact cell line and the HAP1 MTAP-deleted cell line) | A (a Ki ratio greater than or equal to 10 fold between the Ki in the presence of SAM and the Ki in the presence of MTA) | –
7 | – | < 1 | 0.05 to 0.5 | 0.05 to 0.5 | < 1 | 0.5 to 5 | Cc1ncoc1COc1ccc2c(c1)CCN(C[C@@H](O)CNC(=O)c1ccc(OC3CCN(Cc4ccncc4)CC3)cc1)C2 [Compound 416, N-[(2S)-2-hydroxy-3-{6-[(4-methyl-1,3-oxazol-5-yl)methoxy]-1,2,3,4-tetrahydroisoquinolin-2-yl}propyl]-4-{[1-[(pyridin-4-yl)methyl]piperidin-4-yl}oxy)benzamide] | C* (an IC50 ratio of less than 3 fold between the IC50 in the HAP1 MTAP-intact cell line and the HAP1 MTAP-deleted cell line) | – | A (a Ki ratio greater than or equal to 10 fold between the Ki in the presence of SAM and the Ki in the presence of MTA)
8 | – | < 1 | 0.05 to 0.5 | 0.05 to 0.5 | ≥ 10 | 0.5 to 5 | CC(=O)N1CC(Nc2cc(C(=O)NC[C@H](O)CN3CCc4c(ccc(OCc5cnco5)c4Cl)C3)nc(C(C)(C)C)n2)C1 [Compound 360, (S)-6-((1-acetylazetidin-3-yl)amino)-2-(tert-butyl)-N-(3-(5-chloro-6-(oxazol-5-ylmethoxy)-3,4-dihydroisoquinolin-2(1H)-yl)-2-hydroxypropyl)pyrimidine-4-carboxamide] | A* (an IC50 ratio greater than or equal to 10 fold between the IC50 in the HAP1 MTAP-intact cell line and the HAP1 MTAP-deleted cell line) | – | A (a Ki ratio greater than or equal to 10 fold between the Ki in the presence of SAM and the Ki in the presence of MTA)
9 | – | ≥ 10 | 0.5 to 5 | 0.5 to 5 | ≥ 10 | ≥ 5 | Cc1ncoc1COc1ccc2c(c1I)CCN(C[C@@H](O)CNC(=O)c1ccnc(NC3CCC3)c1)C2 [Compound 268, 2-(cyclobutylamino)-N-[(2S)-2-hydroxy-3-[5-iodo-6-[(4-methyloxazol-5-yl)methoxy]-3,4-dihydro-1H-isoquinolin-2-yl]propyl]pyridine-4-carboxamide] | C* (an IC50 ratio of less than 3 fold between the IC50 in the HAP1 MTAP-intact cell line and the HAP1 MTAP-deleted cell line) | – | –
10 | – | 1 to 10 | 0.05 to 0.5 | 0.05 to 0.5 | ≥ 10 | ≥ 5 | Cc1c(OCc2cnco2)ccc2c1CCN(C[C@@H](O)CNC(=O)c1ccnc(NC3CCC3)c1)C2 [Compound 179, 2-(cyclobutylamino)-N-[(2S)-2-hydroxy-3-[5-methyl-6-(oxazol-5-ylmethoxy)-3,4-dihydro-1H-isoquinolin-2-yl]propyl]pyridine-4-carboxamide] | C* (an IC50 ratio of less than 3 fold between the IC50 in the HAP1 MTAP-intact cell line and the HAP1 MTAP-deleted cell line) | – | A (a Ki ratio greater than or equal to 10 fold between the Ki in the presence of SAM and the Ki in the presence of MTA)
11 | – | 1 to 10 | 0.05 to 0.5 | 0.05 to 0.5 | ≥ 10 | ≥ 5 | CCN1CCN(c2nc(NC3COC3)cc(C(=O)NC[C@H](O)CN3CCc4c(ccc(OCc5ocnc5C)c4C)C3)n2)CC1 [Compound 385, 2-(4-ethylpiperazin-1-yl)-N-[(2S)-2-hydroxy-3-{5-methyl-6-[(4-methyl-1,3-oxazol-5-yl)methoxy]-1,2,3,4-tetrahydroisoquinolin-2-yl}propyl]-6-[(oxetan-3-yl)amino]pyrimidine-4-carboxamide] | C* (an IC50 ratio of less than 3 fold between the IC50 in the HAP1 MTAP-intact cell line and the HAP1 MTAP-deleted cell line) | – | A (a Ki ratio greater than or equal to 10 fold between the Ki in the presence of SAM and the Ki in the presence of MTA)
12 | 0.5 to 5 | < 1 | 0.05 to 0.5 | 0.05 to 0.5 | < 1 | – | COCCN(C)c1cc(C(=O)NC[C@H](O)CN2CCc3cc(OCc4ocnc4C)ccc3C2)cc(NC2CCC2)n1 [Compound 554] | C* (an IC50 ratio of less than 3 fold between the IC50 in the HAP1 MTAP-intact cell line and the HAP1 MTAP-deleted cell line) | A (a Ki ratio greater than or equal to 10 fold between the Ki in the presence of SAM and the Ki in the presence of MTA) | –
